The test system of series [1] is HEK-RANK cells (human embryonic kidney cells overexpressing RANK). Kind of series: RANK signaling and receptor half-life study in HEK-RANK cells. The format is cell-based. How it is done: (A) Inhibition of activation of Akt, p38 and ERK by Pep8 (50 μM) was assessed as inhibition of phosphorylation (p) in RAW264.7 cells using Western blot analysis with antibodies against phospho-Akt, phospho-p38 and phospho-ERK. Immunoblots were stripped and then reprobed with antibodies against Akt, p38 and ERK. β-Actin served as loading control. (B) Western blot analyses of NF-κB distribution in the presence or absence of 50 μM Pep8. After treatment with the polypeptide, RAW264.7 cells were fractionated into nuclear and cytoplasmic portions. Nuclear proteins (45 μg) were analyzed with anti-NF-κB p105, p50 and p65 antibodies, while cytoplasmic proteins (30 μg) were analyzed with anti-IκBα. For the non-canonical NF-κB pathway, RelB expression was analyzed in both fractions. β-Actin, HDAC1 and Histone H3 served as loading controls for the cytoplasmic and nuclear fractions, respectively. A representative experiment is shown; time after RANKL stimulation is indicated in parenthesis. (C) Receptor half-life study. […] RANK expression was determined with anti-RANK/TNFRSF11A.
Murine RAW264.7 cells (ATCC) were cultured in αMEM (Invitrogen) supplemented with 10% FBS (Hyclone). Human embryonic kidney 293 cells (ATCC) were stably transduced with an expression-ready clone (Ex-00007-Lv105, OmicsLink™ Expression Clone, GeneCopoeia™) containing the ORF cDNA of RANK/TNFRSF11A. […]

For series [2], the system named is human CD14+ monocytes. Format: cell-based. The text has this:
(§1) Human peripheral blood mononuclear cells (PBMCs) were isolated by centrifugation over Ficoll gradient (Sigma, Saint Quentin Fallavier, France). CD14^+ cells were magnetically labeled with CD14 Microbeads and positively selected by MACS technology (Miltenyi Biotec, Paris, France) as described previously (Duplomb et al. 2008). CD11b^+ monocytes were purified from murine bone marrow cells obtained by flushing the bone marrow from femora and tibiae of 4-week-old C57BL6 male mice, using MACS microbeads (Baud'huin et al. 2010). The purity of cell preparations was around 96%, as controlled by flow cytometry. Generation of osteoclasts from human CD14^+ and murine CD11b^+ monocytes was performed as described previously (Duplomb et al. 2008, Baud′huin et al. 2010). Briefly, purified cells were cultured in α-minimum essential medium (α-MEM, Gibco/Invitrogen, USA) with 10% fetal calf serum and 25 ng/mL human/murine macrophage colony-stimulating factor (M-CSF, R&D Systems, Abindgton, UK). After 3 days of culture, cell medium was replaced by fresh medium containing M-CSF and recombinant human RANKL (100 ng/mL, R&D system), supplemented with or without a polypeptide of interest (0.5-100 μM) or 50 ng/mL human OPG (R&D Systems) used as a reference inhibitor. Soluble cytokines, receptor and polypeptides were renewed every 3 days until multinucleated osteoclasts had formed. After 12 days of culture for CD14^+ cells and 15 days for CD11b^+ cells, osteoclasts were visualized by TRAP staining (Sigma, France) and cells formed with three or more nuclei were manually counted and analyzed statistically.

Series [3] relates to ovariectomized C57BL/6 mice. The series can be described thus: Toxicity in ovariectomized mice (body weight, organ histology). The format is in vivo, mouse. Conditions: 10 mg/kg/day. How it is done:
During the experimental period, the body weight of the mice was monitored. […] After treatment for five weeks, mice were anesthetized with isoflurane (2%, 1 L/min) and sacrificed by cervical dislocation. Lumbar vertebrae and tibiae were collected for micro-CT analysis and stored at 4° C. in 4% paraformaldehyde until further analysis. Additionally, internal organs (heart, liver, lungs, kidneys, spleen, intestines and thymus) of some mice (n=3 per group) were harvested and stored for toxicity screening.
After sacrifice, organs were conserved and fixed in 4% PFA at 4° C., and embedded in paraffin. Sections (4 μm) were cut and stained with hematoxylin and eosin (Lamoureux et al. 2009, Baud′Huin et al. 2010). General morphology of organs was evaluated on each section using a DMRXA microscope (Leica, Nussloch, Germany).

Series [4] has as its system murine CD11b+ cells. The format is cell-based, mouse.
Text: as §1

Series [5] has as its system monocytes. The series can be described thus: Cytotoxicity on monocytes. Format: cell-based. Conditions: 100 μM.
Series [6] can be described thus: Stability of the polypeptide under NMR conditions in phosphate buffer. Conditions: without protein, 2 weeks. Format: physicochemical. Here is the method:
NMR experiments were run at 500.13 MHz for ^1H on a Bruker AVANCE 500 spectrometer with a Linux PC workstation, using standard 5 mm or Shigemi 3 mm tubes with susceptibility matched to solvent ^2H2O/Water sample tubes. The spectra of the polypeptide Pep8 at 0.1, 0.2, 0.4 or 1 mM sample concentrations were recorded in 50 mM sodium phosphate buffer at pH 7.4, prepared in 95% H2O and 5% ^2H2O. Two-dimensional NMR spectra were recorded in the phase-sensitive mode using the States—TPPI method (States et al. 1982). All experiments were carried out using the WATERGATE pulse sequence for water suppression (Piotto et al. 1992) or using the excitation sculpting water suppression (Hwang et al. 1995) to eliminate solvent signal in H2O/^2H2O 95:5 solution. The two-dimensional COSY, TOCSY and NOESY spectra were recorded at 280 K. TOCSY spectra were recorded using a MLEV-17 spin-lock sequence (Bax et al. 1985) with a mixing time (τm) of 35 and 70 ms, respectively. 2D NOESY experiments were recorded at a mixing time (τm) of 100, 200 or 500 ms. The heteronuclear spectra ^1H-^13C HSQC were recorded at 280 K in the same conditions. […] Transferred nuclear Overhauser effect (TRNOESY) spectra of Pep8 with RANK receptor-Fc protein were recorded using a mixing time (Tm) of 100, 200 or 500 ms.

Entries after “also recorded” stand apart in the source; their conditions may differ. Ends that are not written are not given here.

Broadly, the IC50 is the point on the concentration scale where inhibition reaches its midpoint. Higher therefore signals lower potency. Consider NVLKLCSGE [Pep8, NVLKLCSGE], for which, in series [1], the “activation of p38 after stimulation with RANKL” value was “strongly inhibited”. Moreover, the “degradation of RANK in presence of cycloheximide” value in series [1] (CHX 4 μg/mL, Pep8 200 μM, compared with RANKL) is “lead to a degradation of RANK, although to a somewhat lesser extent”. Also, the IC50 in series [2] stood at 40 µM; in series [4], 30 µM. For the same sequence, in series [2] (50 μM polypeptide, screen of 8 new polypeptides), the “inhibitory activity on osteoclastogenesis” value was “inhibitory activity similar to that of the RANKL-targeting mimetics OP3-4 and WP9QY”. For the same sequence, the “number of TRAP-positive multinucleated cells, % of the number formed without the polypeptide” value was determined as 39% in series [2] (100 μM, human cultures) and 28% in series [4] (100 μM, murine cultures). In addition, the “osteoclast development with polypeptide alone” value in series [2] (absence of RANKL) is “did not modulate osteoclast development”. For the same sequence, the “histopathological evaluation of major organs” value in series [3] (5 weeks, heart, lungs, liver, kidneys, spleen, skin) is reported as “No histomorphological difference; also recorded: no toxic effects”. Moreover, in series [3] (35 days), the “effect on body weight in OVX mice” value is recorded as “no effect”. Moreover, in series [4], the “IC50 of osteoclast formation” value was found to be 29 µg/mL. Moreover, the cytotoxic effect entry in series [5] is “no cytotoxic effect”. In series [6], the “stability under experimental NMR conditions” value is recorded as “remained stable”.

For the origin of these results see patent US9403873B2, “Peptides targeting receptor activator of nuclear factor-κB (RANK) and their applications” (UNIVERSITE DE NANTES, priority 2011, dated 2016).
